Data taken from article PMC10670708, “A New Synthetic Curcuminoid Displays Antitumor Activities in Metastasized Melanoma” (Cells, 2023).
“And” between values parts separate entries of the source, which are not always exact repeats. Equal values may be shown once. “Also recorded” adds a separate entry of the source.

Columns and labels:
[1] = test system: B16F10 murine melanoma cells; test: Cytotoxicity assay (resazurin), B16F10; assay type: cell-based; settings: for IC50: Mus musculus, B16-F10, 48 h, resazurin
Description: (§1) 3T3 murine fibroblasts (ATCC # CRL-1658), B16F10 murine melanoma cells (ATCC # CRL-6475) and RAW 264.7 murine macrophages (ATCC # TIB-71) were cultured in Dulbecco’s modified eagle’s high-glucose medium (Sigma Aldrich, Darmstadt, Germany) supplemented with 10% fetal bovine serum (FBS), 1% streptomycin–penicillin (Gibco, Darmstadt, Germany) and 1% L-glutamine (Gibco, Germany). AML12 murine hepatocytes (ATCC # CRL-2254) were cultivated in Dulbecco’s modified eagle’s F-12 Ham media supplemented as described above plus 10 µg/mL insulin, 5.5 µg/mL transferrin, 5 ng/mL selenium (all from Thermo Fisher Scientific, Braunschweig, Germany) and 40 ng/mL dexamethasone (Sigma Aldrich). All cells were maintained in a humidified incubator at 37 °C under 5% CO2. Cells were passaged when they reached semi-confluency. For detachment, cells were thoroughly rinsed with Dulbecco’s phosphate-buffered saline (PBS) without calcium and magnesium (Sigma Aldrich) and enzymatically treated using TrypLE™ Express (1×) (Gibco, Germany). FBS-containing medium was added to stop enzymatic activity.
(§2) A total of 1000 cells were seeded per well in 100 µL medium (for details, see above) using 96-well plates (Greiner Bio-On, Frickenhausen, Germany). After 24 h, curcumin, garcinol (both from Sigma Aldrich), MePip-SF5 and isogarcinol (synthesized as described previously) were added to the wells at concentrations ranging from 0.5 to 64 µM (6 wells per concentration step) and incubated at […] for 48 h. For the preparation of the compounds, drugs were dissolved in DMSO at a concentration of 40 mM for stock solutions and freshly diluted with PBS to a working stock of 4 mM on the day of the experiment.
(§3) After the incubation, resazurin (Sigma Aldrich) was dissolved in fully supplemented media and added to a final concentration of 25 µg/mL per well. After incubation for 3 h, the absorbance of resorufin (7-hydroxy-3H-phenoxazin-3-one), the enzymatic product of resazurin, in the wells was measured on an Infinite M200Pro spectrofluorometer (TECAN, Männedorf, Switzerland) at an excitation of 570 nm. Based on the determined dose–response curves, IC50 concentrations were calculated by Prism 10 (GraphPad Software Version 10.1.0, La Jolla, CA, USA) using nonlinear regression analysis after conversion of concentrations to logarithmic scale.

3T3 murine fibroblasts = test: Cytotoxicity assay (resazurin), 3T3; assay type: cell-based; settings: 3T3 fibroblasts; for IC50: Mus musculus, Fibroblast, 48 h, resazurin
Description: as §1, §2, §3

AML12 murine hepatocytes = test: Cytotoxicity assay (resazurin), AML12; assay type: cell-based; settings: Mus musculus, 48 h
Description: as §1, §2, §3

[2] = test system: RAW 264.7 murine macrophages; test: Cytotoxicity assay (resazurin), RAW 264.7; assay type: cell-based; settings: Mus musculus, RAW264.7, 48 h
Description: as §1, §2, §3

healthy C57BL/6 mice = test: In vivo toxicity and dose finding; settings: for maximum tolerated single dose without signs of acute toxicity: intraperitoneal, twice weekly, escalating doses, n = 2, weight loss and abnormal behavior
Description: Groups of 2 mice (C57BL/6) were challenged with increasing doses of MePip-SF5 or isogarcinol. Stock solutions of drugs (40 mM in DMSO, corresponding to 24 mg/mL for isogarcinol and 21 mg/mL for MePip-SF5) were freshly dissolved in PBS, yielding a total injection volume of 100 µL. Prepared drug solutions were intraperitoneally injected twice weekly (Monday and Friday) over 4 weeks. Drug doses were doubled each week, starting with 15 mg/kg body weight. Physical appearance and body weight were closely monitored. Toxic dose was defined as body weight loss of ≥10% in one week, abnormal behavior or when mice lost ≥5% of their body weight in two consecutive weeks.

[3] = test system: B16F10 pulmonary melanoma metastases; test: In vivo antitumor therapy, pulmonary metastasis of B16F10 melanoma; set-up: species or system mice (C57BL/6); settings: for pulmonary tumor load / antitumor effect: MePip-SF5 60 mg/kg, isogarcinol 15 mg/kg i.p. days 8, 11, 14, day 16, vs vehicle
Description: Eight-weeks-old female C57BL/6 mice (body weight ~20 g) were purchased from Charles River (Sulzfeld, Germany) and kept under 12 h light–dark cycles at 25 °C and 40–60% humidity with humane care. Mice had access to regular chow and water ad libitum. Pulmonary metastases were generated by tail vein injection. A total of 500,000 B16F10 cells were resuspended in sterile 100 µL PBS (cell viability > 90%) and injected into the tail vein of the mice while animals were immobilized in a mouse restrainer (G&P Kunststofftechnik, Kassel, Germany). At 8, 11 and 14 days after melanoma cell injection, groups of mice (n = 10) received an intraperitoneal injection of isogarcinol (15 mg/kg) or MePip-SF5 (60 mg/kg) of 200 µL, while non-treated control mice received equal volumes of PBS. At day 16, mice were sacrificed, and organs (lungs, liver, kidneys and spleen) and blood were sampled for further analysis. Tumor nodules of the left and right lobes of the lungs were macroscopically counted. Pictures of the lungs were taken with a Stemi 2000-C binocular (Carl Zeiss, Jena, Germany), and a mm scale was pictured to create a mm grid in ImageJ software (latest version 1.54f (National Institute of Health, Bethesda, MD, USA). In addition to surface lesion counts, tumors were categorized by their size into categories of <1 mm and <2 mm. Afterwards, both lobes were formalin fixed, paraffin embedded and sectioned (5 µm) to assess intrapulmonary tumor burden. Sections were stained with ready-to-use hematoxylin and eosin staining solution (Carl Roth, Karlsruhe, Germany) for 5 min at room temperature and washed in distilled water and 0.5% acetic acid. Per mouse, lungs were cut into 4–5 parts and then microtome thin-sectioned ([…]). Then, 4 lung sections were randomly selected and analyzed. Sections were tile-scanned with a Leica microscope (DMi8). Pictures were binarized and the percentage of healthy vs. tumor lung tissue measured by ImageJ software using an adjusted threshold setting. Data are expressed as means ± SD per mouse (n = 10 treated group; and n = 11 per control group).

C57BL/6 mice = test: Safety laboratory and biometric parameters in treated metastasis-bearing mice; assay type: in vivo; settings: for tolerability at the applied doses: MePip-SF5 60 mg/kg, isogarcinol 15 mg/kg i.p. ×3; for safety laboratory parameters (LDH, creatinine, urea, ALT, AST, GLDH, γ-GT, Bilirubin, ALP): serum, day 16
Description: (§4) At 8, 11 and 14 days after melanoma cell injection, groups of mice (n = 10) received an intraperitoneal injection of isogarcinol (15 mg/kg) or MePip-SF5 (60 mg/kg) of 200 µL, while non-treated control mice received equal volumes of PBS. At day 16, mice were sacrificed, and organs (lungs, liver, kidneys and spleen) and blood were sampled for further analysis.

[4] = test system: metastatic lung tissue transcripts; test: RT-qPCR of transcripts in lung tissue of treated mice; assay type: in vivo, mice (C57BL/6); settings: MePip-SF5 60 mg/kg, vs controls
Description: (§5) Total RNA was extracted via phenol extraction from cells using RNA-Solv® reagent (VWR International GmbH, Hessen, Germany) as described in the manual of the manufacturer. RNA was purified with the Monarch® Total RNA Miniprep Kit (New England BioLabs GmbH, Frankfurt am Main, Germany) following the manual of the manufacturer. For RNA extraction from lung tissue, the accessory lobe of the right lung was mechanically homogenized in 1 mL RNA-Solv® reagent using the Tissue Lyser II (Qiagen, Venlo, The Netherlands). A 100 µL amount of the suspension was mixed with 900 µL RNA-Solv® reagent, and total RNA extraction was performed using the Monarch® Total RNA Miniprep Kit as described in the manual of the manufacturer.
(§6) RNA content of the extracted solution was measured optically using the Infinite® 200 PRO spectrofluorometer (TECAN, Switzerland), and 25 ng RNA per reaction was used in the following analysis.
(§7) Transcript levels of β-Actin were used to normalize data and to control for RNA integrity. Samples were amplified with the Luna® Universal One-Step RT-qPCR Kit (New England BioLabs GmbH, Frankfurt am Main) and analyzed using a Step One Plus sequence amplification system from LifeTechnologies (Darmstadt, Germany). For normalization, results were expressed as the ratio of the copy numbers of the target gene divided by the number of copies of the housekeeping gene (β-Actin) within individual PCR runs.
as §4

[5] = test system: M2-polarized bone-marrow-derived macrophages; test: Phenotype modulation of M2-polarized BMDM (RT-qPCR); assay type: cell-based, mice (C57BL/6); settings: M2-polarized primary macrophages; for Ccl3 expression: half of RAW IC50
Description: Bone marrow was extracted from 8-weeks-old C57BL/6 mice (Charles River, Erkrat, Germany) and matured into primary macrophages in the presence of macrophage colony-stimulating factor (M-CSF). Briefly, mice were sacrificed by cervical dislocation, and the femurs and tibias were isolated under sterile conditions and rinsed with cold PBS supplemented with 2% heat-inactivated FBS and 1% penicillin/streptomycin using a 21G needle and a 10 mL syringe (Braun, Kronberg, Germany). Cell suspensions were passed through a 70 µm cell strainer (Milteny, Bergisch Gladbach, Germany). The remaining red blood cells were lysed with red cell lysis buffer (eBioscience, San Diego, CA, USA) and the resulting bone marrow cells resuspended in fully supplemented Iscove’s modified Dulbecco’s medium (Gibco) plus 25 ng/mL M-CSF (from a 1 mg/mL M-CSF stock solution in PBS, M-CSF, ImmunoTools, Friesoythe, Germany). Five million cells were cultured on bacterial culture plates (Sigma-Aldrich, Germany) in a total volume of 10 mL. After 4 days, half of the medium was substituted by fresh medium to yield primary macrophages after an additional 4 days.
For M2-type polarization, BMDM medium was exchanged for fresh medium containing 20 ng/mL IL-4 and 20 ng/mL IL-13 (ImmunoTools, Germany), and cells were incubated for 24 h. […] IC50 concentrations were calculated as described above for the cytotoxicity assays.
as §5, §6, §7

[6] = test system: various solid tumor cell lines (including colon cancer and glioblastoma cells); settings: exceeded the activities of previous curcuminoids; cited from earlier work
[7] = test system: gemcitabine-resistant pancreatic cancer patients; set-up: method as in PMID 20859741; settings: cited from earlier work

SMILES | IC50 [1] [µM] | IC50 (3T3 murine fibroblasts) [µM] | IC50 (AML12 murine hepatocytes) [µM] | IC50 [2] [µM] | maximum tolerated single dose without signs of acute toxicity (healthy C57BL/6 mice) [mg/kg] | pulmonary tumor load / antitumor effect [3] | tolerability at the applied doses (C57BL/6 mice) | safety laboratory parameters (LDH, creatinine, urea, ALT, AST, GLDH, γ-GT, Bilirubin, ALP) (C57BL/6 mice) | Ccl3 expression [5] | further results
CN1C/C(=C\c2ccc(S(F)(F)(F)(F)F)cc2)C(=O)/C(=C/c2ccc(S(F)(F)(F)(F)F)cc2)C1 [MePip-SF5, (E)-1-methyl-3,5-bis(4-pentafluorothiobenzylidene)-4-piperidone] | 2.8 | 0.7 | 2.3 | 1.3 | 60 | significantly (p < 0.05) lower; also recorded: robust antitumor effect | well tolerated | remained normal | upregulated | times more active than parent drug curcumin (3T3 murine fibroblasts; ratio of IC50): 10 ×; could be dosed more highly than isogarcinol (healthy C57BL/6 mice; ratio of tolerated doses): 8 ×; proportion of healthy lung tissue (morphometric, thin sections) ([3]; 60 mg/kg i.p. days 8, 11, 14, vs PBS-treated controls): significantly higher; numbers of macroscopic tumor nodules of size ≤ 1 mm in the lungs ([3]; i.p. days 8, 11, 14, sacrifice day 16, vs controls and isogarcinol-treated mice): significantly (p < 0.05) lower; Bax expression in lungs [4]: remained unchanged; Bcl2 expression in lungs [4]: remained unchanged; Hif1a expression in lungs [4]: did not affect; Il6 expression in lungs [4]: did not affect; Ki67 expression in lungs [4]: trend of reduced expression; Bub1 expression in lungs ([4]; 60 mg/kg): significantly (p < 0.05) reduced; also recorded: significantly downregulated; Ccl3 expression in lungs ([4]; 60 mg/kg): significantly (p < 0.05) reduced; Tnfa expression in lungs ([4]; 60 mg/kg): significantly (p < 0.05) reduced; Inos expression [5]: no effect; Ccl2 expression ([5]; effective dose of 0.6 µM): increased; antiproliferative activity [6]: high antiproliferative activity
COc1cc(/C=C/C(=O)CC(=O)/C=C/c2ccc(O)c(OC)c2)ccc1O [curcumin] | 13.8 | 6.8 | 10.8 | 5.5 | – | – | – | – | – | 1-year survival rate ([7]; 95% confidence interval 4.4–41.4%): 19%; median survival ([7]; 95% confidence interval 109–223 days): 161 days
C=C(C)[C@@H](CC=C(C)C)C[C@@]12C[C@@H](CC=C(C)C)C(C)(C)[C@@](CC=C(C)C)(C(=O)C(C(=O)c3ccc(O)c(O)c3)=C1O)C2=O [garcinol, reference compound] | 3.1 | 8.7 | 10.1 | 3.8 | – | – | – | – | not | –
CC(C)=CC[C@H]1C[C@@]23C[C@@H](CC=C(C)C)C(C)(C)[C@@](CC=C(C)C)(C(=O)C(C(=O)c4ccc(O)c(O)c4)=C2OC1(C)C)C3=O [isogarcinol] | 2.1 | 3.2 | 4.3 | 2.3 | 15 | ineffective; also recorded: failed to show activity | well tolerated | remained normal | increased | stronger activity than original substance garcinol [1]: 40% and ~ 40%
